Measured values published in ChEMBL document CHEMBL3351562, “Oxo- and thiooxo-imidazo[1,5-c]pyrimidine molecule library: beyond their interest in inhibition of Brucella suis histidinol dehydrogenase, a powerful protection tool in the synthesis of histidine analogues” (Bioorg Med Chem Lett, 2014).

Assay: Inhibition of Brucella suis histidinol dehydrogenase assessed as NADH released as a by-product preincubated for 5 min at 30 degC by spectrophotometric method

SMILES | IC50
N[C@@H](Cc1c[nH]cn1)C(=O)Cc1ccc(F)cc1F | 0.01 µM
Cc1ccc(CC(=O)[C@@H](N)Cc2c[nH]cn2)cc1 | 0.015 µM
N[C@@H](Cc1c[nH]cn1)C(=O)Cc1ccc(Br)cc1 | 0.006 µM
N[C@@H](Cc1c[nH]cn1)C(=O)Cc1ccc(-c2ccccc2)cc1 | 0.012 µM
N[C@@H](Cc1c[nH]cn1)C(=O)Cc1ccc(Cl)cc1 | 0.012 µM
COC(=O)[C@@H]1Cc2cncn2C(=O)N1 | 532 µM
O=C(Cc1ccc(Br)cc1)[C@@H]1Cc2cncn2C(=O)N1 | 98 µM
O=C(Cc1ccc(Cl)cc1)[C@@H]1Cc2cncn2C(=O)N1 | 92 µM
Cc1ccc(CC(=O)[C@@H]2Cc3cncn3C(=O)N2)cc1 | 113 µM
O=C(Cc1ccc(F)cc1F)[C@@H]1Cc2cncn2C(=O)N1 | 143 µM
O=C(Cc1ccc(-c2ccccc2)cc1)[C@@H]1Cc2cncn2C(=O)N1 | 86 µM
CCCCCc1ccc(C#Cc2ccc(CC(=O)[C@@H]3Cc4cncn4C(=O)N3)cc2)cc1 | 175 µM
COC(=O)[C@@H]1Cc2cncn2C(=S)N1 | 18 µM
O=C(Cc1ccc(Br)cc1)[C@@H]1Cc2cncn2C(=S)N1 | 105 µM
O=C(Cc1ccc(Cl)cc1)[C@@H]1Cc2cncn2C(=S)N1 | 74 µM
Cc1ccc(CC(=O)[C@@H]2Cc3cncn3C(=S)N2)cc1 | 95 µM
O=C(Cc1ccc(F)cc1F)[C@@H]1Cc2cncn2C(=S)N1 | 95 µM
O=C(Cc1ccc(-c2ccccc2)cc1)[C@@H]1Cc2cncn2C(=S)N1 | 5 µM
CCCCCc1ccc(C#Cc2ccc(CC(=O)[C@@H]3Cc4cncn4C(=S)N3)cc2)cc1 | 322 µM
CCCCCc1ccc(C#Cc2ccc(CC(=O)[C@@H](N)Cc3c[nH]cn3)cc2)cc1 | 0.009 µM
